Assay results: publication PMC11111408, “Concurrent inhibition of oncogenic and wild-type RAS-GTP for cancer therapy” (Nature, 2024)
Where “and” joins values, the source holds several entries; their conditions need not be identical. Equal values may be shown once.

What was measured:
[1] = Body weight and tolerability of tumour bearing mice; conditions: for % Body Weight Change: 10 mg/kg po qd, 10 mg/kg
Method: All datapoints shown, n = 3 per dose and timepoint.
Female BALB/c nude mice, NOD SCID and NSG mice 6-8 weeks old from Beijing Vital River/VR Laboratory Animal Co., LTD, Beijing AniKeeper Biotech Co., Ltd., Shanghai Sino-British SIPPR/BK Laboratory Animal Co., LTD and The Jackson Laboratory were used. Animals were housed in polycarbonate cages, in an environmentally monitored, well ventilated room maintained at a constant temperature of 20-26°C and relative humidity of 40-80%. Fluorescent lighting provided illumination approximately 12 hours per day. Each mouse was inoculated at the right flank with tumor cells (2x10^6-1x10^7) in 100-200 µL of media/PBS supplemented with Matrigel (1:1). Treatments were started when the average tumor size reached 100-250 mm^3. […] Mice on studies were weighed and tumor measurements collected twice weekly. […] For efficacy study, Animals were assigned to study groups using stratified randomization based upon their tumor volumes (n=3-10/group). […] Animals were treated for 28 days (or up to 110 for selected models) or an earlier time if tumor burden reached humane endpoint. […] Body weights were collected twice a week during the study.

[2] = biological target: T1, KRAS–PI3Kα (Homo sapiens, UniProt P01116, G12D); test: Cellular nano-BRET, full length PI3Kα binding to KRAS G12C, G12D, G12V; type: cell-based; conditions: KRAS G12D, in the presence of CYPA, single replicates;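 further: U2OS cells expressing KRAS4B mutants carrying N-terminal nanoluciferase or HaloTag fusions, with nano-BRET signal measured after inhibitor exposure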
T1 construct: expressed in transfected cells; host or cells: U2OS

[3] = biological target: T2, KRAS–PI3Kα (Homo sapiens, UniProt P01116, G12C); test: as above; type: cell-based; conditions: KRAS G12C, in the presence of CYPA, single replicates
T2 construct: expressed in transfected cells; host or cells: U2OS

[4] = biological target: T3, KRAS–PI3Kα (Homo sapiens, UniProt P01116, G12V); test: as above; type: cell-based; conditions: KRAS G12V, in the presence of CYPA, single replicates
T3 construct: expressed in transfected cells; host or cells: U2OS

[5] = system: KRAS^G12D PDAC cell lines; test: Western blot time course of RAS signalling in KRAS^G12D PDAC cell lines; type: cell-based, human; conditions: KRAS^G12D PDAC cells in culture, 2 h to 48 h
Method: Total ERK and vinculin were used as loading controls. […] Source Data
Cells were lysed with MSD Tris Lysis Buffer (MSD, R60TX-2) or a buffer of 1% Triton X-100, 20 mM Tris-HCl, 150 mM NaCl, and 1 mM EDTA, both supplemented with protease and phosphatase inhibitors. Lysates were cleared by centrifugation and quantified by BCA assay (Pierce, 23225). […] Image Studio Lite (Version 5.2.5) and Image Lab (Version 6.1.0 build 7) software were used for data analysis.

[6] = biological target: T4, GDP-bound KRAS(G12C) (Homo sapiens, UniProt P01116, G12C); test: SPR binding of RMC-7977–CYPA binary complex to GDP-bound KRAS; conditions: in vitro
T4 construct: His6-TEV (N); made in house; host or cells: E. coli BL21(DE3)

[7] = biological target: T5, GMPPNP–KRAS (Homo sapiens, UniProt P01116, G12C); test: SPR binding of RMC-7977 to KRAS in the absence of CYPA; conditions: compound alone without CYPA
T5 construct: His6-TEV (N); made in house; host or cells: E. coli BL21(DE3)

[8] = biological target: KRAS^G12R (Homo sapiens, UniProt P01116+P62937, G12R); test: Biochemical RAS–RAF (BRAF RBD) disruption, TR-FRET; set-up: made in house; host or cells: BL21(DE3) Escherichia coli; conditions: (95% CI)
Text: (§1) Time-resolved fluorescence resonance energy transfer (TR-FRET) was used as previously described to assess disruption of the interactions between wild-type RAS or the mutant oncogenic RAS proteins and the RAS-binding domain of BRAF, and to assess the induction of interactions between the RAS proteins and CYPA[12].

[9] = biological target: T6, KRAS WT (Homo sapiens, UniProt P01116+P62937); test: Biochemical RAS–RAF (BRAF RBD) disruption, TR-FRET; set-up: made in house; host or cells: BL21(DE3) Escherichia coli
Text: as §1

[10] = biological target: KRAS^G12D (Homo sapiens, UniProt P01116+P62937, G12D); test: Biochemical RAS–RAF (BRAF RBD) disruption, TR-FRET; set-up: made in house; host or cells: BL21(DE3) Escherichia coli; conditions: (95% CI)
Text: as §1

[11] = biological target: T6, KRAS WT; test: RAS binding affinity of compound-bound CYPA (Kd2), SPR; set-up: made in house; host or cells: BL21(DE3) Escherichia coli; conditions: steady state SPR, (95% CI)
[12] = system: NCI-H441 CDX tumours; test: NCI-H441 CDX efficacy study; type: in vivo, mouse; conditions: NCI-H441 model, 10 mg kg^−1 daily oral, 28 days
Method: Xenograft studies were conducted at GenenDesign, Pharmaron, Wuxi AppTec, the laboratory of P. Lito, and the laboratory of C. Ambrogio. […] All procedures related to animal handling, care and treatment were conducted in compliance with all applicable regulations and guidelines of the relevant Institutional Animal Care and Use Committee (IACUC). […] Experimental details are supplied in the Supplementary Methods.

[13] = biological target: HRAS WT (Homo sapiens, UniProt P01112+P62937); test: RAS binding affinity of compound-bound CYPA (Kd2), SPR; conditions: steady state SPR, (95% CI)
[14] = biological target: KRAS^G12C (Homo sapiens, UniProt P01116+P62937, G12C); test: as above; set-up: His6-TEV (N); made in house; host or cells: BL21(DE3) Escherichia coli; conditions: steady state SPR, (95% CI)
[15] = system: KRAS(G12C)-mutated PDX model from a NSCLC patient relapsed on sotorasib; test: Sotorasib resistance xenograft study (KRAS^G12C NSCLC PDX); type: in vivo, mouse; conditions: 10 mg kg^−1 daily oral, day 17 of treatment

CCn1c(-c2cc(N3CCN(C4CC4)CC3)cnc2[C@H](C)OC)c2c3cc(ccc31)-c1csc(n1)C[C@H](NC(=O)[C@H]1[C@@H]3COC[C@@H]31)C(=O)N1CCC[C@H](N1)C(=O)OCC(C)(C)C2 [RMC-7977]
% Body Weight Change ([1]; NCI-H441 tumor bearing BALB/c nude mice, day 4, individual animals): -4.55% and -0.24% and 1.44% and 1.89% and -1.08% and 0.22% and -2.41% and 1.83% | % Body Weight Change ([1]; NCI-H441 tumor bearing BALB/c nude mice, day 7, individual animals): -9.19% and -1.70% and 0.68% and 1.75% and -4.40% and -1.88% and -16.62% and -2.26% | % Body Weight Change ([1]; NCI-H441 tumor bearing BALB/c nude mice, day 11, individual animals): -4.55% and -4.86% and 0.27% and 1.46% and -4.26% and -1.16% and -0.43% and 0.65% | % Body Weight Change ([1]; NCI-H441 tumor bearing BALB/c nude mice, day 14, individual animals): -3.50% and -2.87% and 1.04% and 3.87% and -4.31% and -0.18% and -2.76% and -1.00% | % Body Weight Change ([1]; NCI-H441 tumor bearing BALB/c nude mice, day 18, individual animals): -0.17% and 7.78% and -13.00% and 19.16% and -2.62% and 1.70% and -3.06% and 3.09% | % Body Weight Change ([1]; NCI-H441 tumor bearing BALB/c nude mice, day 21, individual animals): -1.14% and -0.19% and 3.16% and 1.56% and -3.51% and 3.31% and -2.50% and 1.35% | % Body Weight Change ([1]; NCI-H441 tumor bearing BALB/c nude mice, day 25, individual animals): -5.65% and 1.02% and 4.20% and 4.72% and -0.28% and 1.43% and -6.63% and 1.91% | % Body Weight Change ([1]; NCI-H441 tumor bearing BALB/c nude mice, day 28, individual animals): -1.90% and 1.90% and 4.11% and 4.06% and 0.28% and 2.82% and -8.01% and 4.78% | % Body Weight Change ([1]; PDAC G12D tumor bearing BALB/c nude mice, day 3, individual animals): -4.17% | % Body Weight Change ([1]; PDAC G12D tumor bearing BALB/c nude mice, day 7, individual animals): -4.17% | % Body Weight Change ([1]; PDAC G12D tumor bearing BALB/c nude mice, day 14, individual animals): -8.33% | % Body Weight Change ([1]; PDAC G12D tumor bearing BALB/c nude mice, day 17, individual animals): -8.33% | % Body Weight Change ([1]; PDAC G12D tumor bearing BALB/c nude mice, day 21, individual animals): -8.00% and 0.00% | % Body Weight Change ([1]; PDAC G12D tumor bearing BALB/c nude mice, day 24, individual animals): -8.00% | % Body Weight Change ([1]; PDAC G12D tumor bearing BALB/c nude mice, day 28, individual animals): 4.00% | effect on body weights ([1]; all 15 KRAS^G12X xenograft models, 10 mg kg^−1): minimal effect on body weights | tolerability ([1]; repeated daily administration at 10 mg kg^−1, NCI-H441 model): well tolerated | Cellular nano-BRET of PI3K⍺ (full-length) binding to KRAS ([2]; RMC-7977 12.346 nM): 15.8391 and 14.8964 and 15.0849 and 14.7399 and 14.2306 and 14.9536 | Cellular nano-BRET of PI3K⍺ (full-length) binding to KRAS ([2]; RMC-7977 37.037 nM): 13.3166 and 13.8897 and 13.2531 and 13.6566 and 13.0465 and 13.0111 | Cellular nano-BRET of PI3K⍺ (full-length) binding to KRAS ([2]; RMC-7977 111.111 nM): 12.9631 and 12.8542 (2×) and 12.751 and 12.7145 and 12.5362 | Cellular nano-BRET of PI3K⍺ (full-length) binding to KRAS ([2]; RMC-7977 333.333 nM): 12.4418 and 12.5115 and 12.0796 and 12.2384 and 12.3217 and 12.5478 | Cellular nano-BRET of PI3K⍺ (full-length) binding to KRAS ([2]; RMC-7977 1000.000 nM): 12.9103 and 12.8341 and 12.4299 and 12.848 and 12.6569 and 12.4165 | Cellular nano-BRET of PI3K⍺ (full-length) binding to KRAS ([3]; RMC-7977 4.115 nM): 18.9 and 18.4569 and 18.8341 and 18.1839 and 17.8374 and 17.916 | Cellular nano-BRET of PI3K⍺ (full-length) binding to KRAS ([3]; RMC-7977 12.346 nM): 15.8416 and 16.2344 and 15.8041 and 16.4517 and 15.615 and 15.4215 | Cellular nano-BRET of PI3K⍺ (full-length) binding to KRAS ([3]; RMC-7977 37.037 nM): 13.5244 and 14.2699 and 13.7436 and 13.7375 and 14.0918 and 13.7581 | Cellular nano-BRET of PI3K⍺ (full-length) binding to KRAS ([3]; RMC-7977 111.111 nM): 13.3801 and 13.6296 and 13.7851 and 13.3968 and 13.4702 and 13.5585 | Cellular nano-BRET of PI3K⍺ (full-length) binding to KRAS ([3]; RMC-7977 333.333 nM): 13.479 and 13.457 and 13.6054 and 13.4472 and 13.3596 and 13.441 | Cellular nano-BRET of PI3K⍺ (full-length) binding to KRAS ([3]; RMC-7977 1000.000 nM): 13.0371 and 13.4964 and 13.2247 and 13.6424 and 13.499 and 13.5185 | Cellular nano-BRET of PI3K⍺ (full-length) binding to KRAS ([4]; RMC-7977 4.115 nM): 19.5671 and 18.6162 and 18.8909 and 19.2958 | Cellular nano-BRET of PI3K⍺ (full-length) binding to KRAS ([4]; RMC-7977 12.346 nM): 17.0686 and 16.4926 and 17.3848 and 16.3061 and 17.5986 and 16.6607 | Cellular nano-BRET of PI3K⍺ (full-length) binding to KRAS ([4]; RMC-7977 37.037 nM): 14.0491 and 14.079 and 13.7071 and 13.4685 and 14.6716 and 13.9571 | Cellular nano-BRET of PI3K⍺ (full-length) binding to KRAS ([4]; RMC-7977 111.111 nM): 13.3096 and 12.8133 and 13.2135 and 13.4943 and 13.3044 and 13.1946 | Cellular nano-BRET of PI3K⍺ (full-length) binding to KRAS ([4]; RMC-7977 333.333 nM): 13.0302 and 13.2252 and 12.7334 and 12.2876 and 12.5409 and 12.8603 | Cellular nano-BRET of PI3K⍺ (full-length) binding to KRAS ([4]; RMC-7977 1000.000 nM): 12.5669 and 12.7724 and 12.7825 and 12.8803 and 12.1527 and 13.0533 | pERK suppression over time [5]: sustained pERK suppression | binding of RMC-7977–CYPA binary complex to GDP-bound KRAS(G12C) [6]: No binding was observed | binding to GMPPNP–KRAS [7]: neither RMC-7977 nor CYPA alone exhibited any measurable binding | EC50 [8]: 123 nM | EC50 [9]: 77 nM | EC50 [10]: 176 nM | Kd [11]: 116 nM | mean tumour regression [12]: 83% | Kd [13]: 94.7 nM | Kd [14]: 40.1 nM | inhibition of tumour growth [15]: 90%
